Measured values: ChEMBL document CHEMBL1201862, “PubChem BioAssay data set” (2004)
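Protocol summary: plate cells (96-well), add compound at 5 concentrations, incubate 48 h, interpolate endpoints linearly. Abbreviation: GI50, concentration required for 50% inhibition of growth.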 Activity calls are given as the source filed them. Rule as the data show it: active = GI50 up to about 1.1 µM and inactive = higher.

Key:
Experiment in all cases: growth of human tumour cells (NCI), 48 h
[1] = system: OVCAR-5
[2] = system: MOLT-4
[3] = system: NCI-H522
[4] = system: SF-295
[5] = system: SF-539
[6] = system: SW-620
[7] = system: OVCAR-3
[8] = system: RPMI-8226
[9] = system: M14
[10] = system: HCT-15
[11] = system: SK-MEL-28
[12] = system: COLO 205
[13] = system: SF-268
[14] = system: K562
[15] = system: CAKI-1
[16] = system: UACC-62
[17] = system: Malme-3M
[18] = system: SK-MEL-5

| Structure (SMILES) | GI50 [1] | GI50 [2] | GI50 [3] | GI50 [4] | GI50 [5] | GI50 [6] | GI50 [7] | GI50 [8] | GI50 [9] | GI50 [10] [µM] | GI50 [11] | GI50 [12] | GI50 [13] | GI50 [14] | GI50 [15] | GI50 [16] | GI50 [17] | GI50 [18] |
| --- | --- | --- | --- | --- | --- | --- | --- | --- | --- | --- | --- | --- | --- | --- | --- | --- | --- | --- |
| CC1CCC2(C)C(CC=C(C=O)C2(O)C=O)C12CO2 (stereo not drawn) | 2.73 µM (inactive) | 1.87 µM (inactive) | 2.31 µM (inactive) | 3.31 µM (inactive) | 2.19 µM (inactive) | 2.36 µM (inactive) | 0.481 µM (active) | 2.15 µM (inactive) | 1.36 µM (inactive) | 2.14 | 1.79 µM (inactive) | 1.33 µM (inactive) | 4.25 µM (inactive) | 1.7 µM (inactive) | 2.96 µM (inactive) | 1.64 µM (inactive) | 2.64 µM (inactive) |  |
| CN1CC(=O)N2Cc3ccccc3-n3cccc3C2C1 (stereo not drawn) | > 100 µM (inactive) |  |  | > 100 µM (inactive) | > 100 µM (inactive) | > 100 µM (inactive) | > 100 µM (inactive) |  | > 100 µM (inactive) | > 100 | > 100 µM (inactive) | > 100 µM (inactive) | > 100 µM (inactive) |  | > 100 µM (inactive) | > 100 µM (inactive) | > 100 µM (inactive) | > 100 µM (inactive) |
| O=[N+]([O-])CCc1cccc([N+](=O)[O-])c1 | > 100 µM (inactive) | > 100 µM (inactive) | > 100 µM (inactive) | > 100 µM (inactive) | > 100 µM (inactive) | 9.44 µM (inactive) | > 100 µM (inactive) | > 100 µM (inactive) | > 100 µM (inactive) | > 100 | > 100 µM (inactive) | > 100 µM (inactive) | > 100 µM (inactive) | > 100 µM (inactive) | > 100 µM (inactive) | > 100 µM (inactive) | > 100 µM (inactive) | > 100 µM (inactive) |
| NC(=S)N/N=C1/C(=O)N(c2ccccc2)C(=O)C1C(=O)Nc1ccccc1 (stereo not drawn) | > 100 µM (inactive) | > 100 µM (inactive) | > 100 µM (inactive) | > 100 µM (inactive) | > 100 µM (inactive) | > 100 µM (inactive) | > 100 µM (inactive) |  | > 100 µM (inactive) | > 100 | > 100 µM (inactive) | > 100 µM (inactive) | > 100 µM (inactive) |  | > 100 µM (inactive) | > 100 µM (inactive) | > 100 µM (inactive) | > 100 µM (inactive) |
| COc1ccc2c(c1)C(CCN)C(=O)N2 (stereo not drawn) | > 100 µM (inactive) | > 100 µM (inactive) |  | > 100 µM (inactive) | > 100 µM (inactive) | > 100 µM (inactive) | > 100 µM (inactive) | > 100 µM (inactive) | > 100 µM (inactive) | > 100 | > 100 µM (inactive) | > 100 µM (inactive) | > 100 µM (inactive) | > 100 µM (inactive) | > 100 µM (inactive) | > 100 µM (inactive) | > 100 µM (inactive) | > 100 µM (inactive) |
| COc1cc(Br)c(C2OCCCO2)cc1OCc1ccccc1 | > 100 µM (inactive) | 41.6 µM (inactive) | 66.1 µM (inactive) | > 100 µM (inactive) | 73.1 µM (inactive) | > 100 µM (inactive) | 47.2 µM (inactive) | 52.8 µM (inactive) | 67.9 µM (inactive) | 61.1 | 60.3 µM (inactive) | > 100 µM (inactive) | 39 µM (inactive) | 53.2 µM (inactive) |  | 73.5 µM (inactive) |  | 46.3 µM (inactive) |
| COc1ccc(/C=C/C(=O)c2sc(NC(=S)NC(=O)c3ccc(Cl)cc3)nc2C)cc1OC | > 100 µM (inactive) | 27.2 µM (inactive) | > 10 µM (inactive) | 77.4 µM (inactive) | 60.4 µM (inactive) | 55.7 µM (inactive) | 38.4 µM (inactive) | 24 µM (inactive) | 52.6 µM (inactive) | 35 | 35.9 µM (inactive) | 37.2 µM (inactive) | 94.8 µM (inactive) | 27.4 µM (inactive) | 75.9 µM (inactive) | 18.4 µM (inactive) | 37.2 µM (inactive) |  |
| O=C1N/C(=C\[N+](=O)[O-])c2ccccc21 | > 100 µM (inactive) | > 100 µM (inactive) | > 100 µM (inactive) | > 100 µM (inactive) | > 100 µM (inactive) | > 100 µM (inactive) | > 100 µM (inactive) | > 100 µM (inactive) | > 100 µM (inactive) | > 100 | > 100 µM (inactive) | > 100 µM (inactive) | > 100 µM (inactive) | > 100 µM (inactive) |  | > 100 µM (inactive) | > 100 µM (inactive) | > 100 µM (inactive) |
| CC(=O)O[C@H]1CCC2[C@@H]3CCC4Nc5c(cnn5-c5ccccc5)C[C@]4(C)C3CC[C@@]21C (stereo partly drawn) | 17.4 µM (inactive) | 6.93 µM (inactive) | 14.7 µM (inactive) | 2.97 µM (inactive) | 17.5 µM (inactive) | 11.9 µM (inactive) | 6.92 µM (inactive) | 4.2 µM (inactive) | 14.4 µM (inactive) | 13.2 |  | 14.5 µM (inactive) | 32.5 µM (inactive) | 12.6 µM (inactive) | 3.2 µM (inactive) | 10.4 µM (inactive) | 11.8 µM (inactive) | 7.94 µM (inactive) |
| CCCN(CCCCC(NC(C)=O)C(=O)NCc1ccccc1)C(=O)NCCCl (stereo not drawn) |  | > 100 µM (inactive) | > 100 µM (inactive) | > 100 µM (inactive) | > 100 µM (inactive) | > 100 µM (inactive) | > 100 µM (inactive) | > 100 µM (inactive) | > 100 µM (inactive) | > 100 | > 100 µM (inactive) | > 100 µM (inactive) | > 100 µM (inactive) | > 100 µM (inactive) | > 100 µM (inactive) | > 100 µM (inactive) | > 100 µM (inactive) | > 100 µM (inactive) |
| CC(=O)N1c2ccccc2C2=CC3C4C(=O)N(c5ccccc5)C(=O)C4C21C1C(=O)N(c2ccccc2)C(=O)C31 (stereo not drawn) | 55.1 µM (inactive) | 30.8 µM (inactive) |  | 7.06 µM (inactive) | 2.61 µM (inactive) | 31.2 µM (inactive) |  |  |  | 17.1 | > 100 µM (inactive) | 59.7 µM (inactive) | 17.3 µM (inactive) | 15.1 µM (inactive) | 48.3 µM (inactive) | 30.6 µM (inactive) | 99.5 µM (inactive) |  |
| COc1cc2cc3c4c(cc(OC)c(OC)c4c2cc1OC)CCN3C(=O)CCC(=O)NCCCN(C)C |  | 58.9 µM (inactive) | 21.8 µM (inactive) | 37 µM (inactive) | 18.8 µM (inactive) | 54 µM (inactive) | > 100 µM (inactive) | 38.5 µM (inactive) | 17.6 µM (inactive) | > 100 | 38.4 µM (inactive) | 32.6 µM (inactive) | > 100 µM (inactive) | 33.6 µM (inactive) | > 100 µM (inactive) | 47.6 µM (inactive) | 64.7 µM (inactive) | 14.7 µM (inactive) |
| O=C1c2ccncc2C(=O)c2c(O)ccc(O)c21 | 16 µM (inactive) | 5.89 µM (inactive) |  | 12.6 µM (inactive) | 3.89 µM (inactive) | 2.89 µM (inactive) | 1.95 µM (inactive) | 5.16 µM (inactive) | 4.65 µM (inactive) | 4.52 | 11.9 µM (inactive) | 3.72 µM (inactive) | 11.1 µM (inactive) | 10.1 µM (inactive) | > 10 µM (inactive) | 3.12 µM (inactive) | 1.69 µM (inactive) |  |
| C1CSCCSCCCS[C@@H]2CCCCC2SC1 (stereo partly drawn) | > 100 µM (inactive) |  | 25.9 µM (inactive) | > 100 µM (inactive) | > 100 µM (inactive) | 20.1 µM (inactive) | > 100 µM (inactive) | 21 µM (inactive) | > 100 µM (inactive) | 15.4 | > 100 µM (inactive) | 52.5 µM (inactive) | > 100 µM (inactive) | 24.3 µM (inactive) | > 100 µM (inactive) | > 100 µM (inactive) | > 100 µM (inactive) | > 100 µM (inactive) |
| COc1ccc(C2=C(Cl)c3cc(OC)c(OC)cc3C2Cl)cc1OC (stereo not drawn) | 16.3 µM (inactive) | 3.82 µM (inactive) |  | 18.3 µM (inactive) |  | 15.2 µM (inactive) | 15.1 µM (inactive) | 10.2 µM (inactive) | 17.7 µM (inactive) | 18.2 | 17 µM (inactive) | 18.3 µM (inactive) |  | 10.8 µM (inactive) | 14.7 µM (inactive) | 15.4 µM (inactive) | 19.6 µM (inactive) | 14.6 µM (inactive) |
| COc1cc(NS(C)(=O)=O)ccc1NCc1c2ccccc2nc2ccccc12 | > 100 µM (inactive) | 3.27 µM (inactive) | 24.3 µM (inactive) | 64 µM (inactive) | 24.3 µM (inactive) | 26.7 µM (inactive) | 43.5 µM (inactive) | 22.5 µM (inactive) | 52.6 µM (inactive) | 21.7 | 49.7 µM (inactive) | 70.1 µM (inactive) | 32.1 µM (inactive) | 7.87 µM (inactive) | 21.7 µM (inactive) | > 100 µM (inactive) | 31.5 µM (inactive) |  |
| O=C(NCCCN1CCN(CCCNC(=O)c2cnc3ccccc3n2)CC1)c1cnc2ccccc2n1 |  | 44.8 µM (inactive) | 90.8 µM (inactive) | > 100 µM (inactive) | > 100 µM (inactive) | > 100 µM (inactive) | > 100 µM (inactive) | > 100 µM (inactive) | > 100 µM (inactive) | > 100 | > 100 µM (inactive) | > 100 µM (inactive) | > 100 µM (inactive) | > 100 µM (inactive) | > 100 µM (inactive) | > 100 µM (inactive) | > 100 µM (inactive) | > 100 µM (inactive) |
